# From US20230011869A1 (Hoffmann-La Roche Inc., priority 2018, published 2023)
# Counter-ions that a name gives are not always drawn.
# Tested on: Acinetobacter baumannii ATCC17978
# Assay: Antimicrobial susceptibility testing: 90% growth inhibitory concentration (IC90) determination, Iso-Sensitest broth
# Format: cell-based
# Settings: 90% growth inhibitory concentration, Acinetobacter baumannii ATCC17978, Iso-Sensitest broth, OD 600 nm over 16 h; read-out: ATCC17978 IC90
# In short: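 A. baumannii ATCC17978 grown in Iso-Sensitest broth across 10 compound concentrations at 35±2 °C.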
row,SMILES,IC90 [nM]
1,"COc1ccc(-c2cnc3c(Nc4ccc(C(=O)N5CCNC(CO)C5)c(C)c4)nccn23)cc1F (stereo not shown) [Example 422, [4-[[3-(3-fluoro-4-methoxyphenyl)imidazo[1,2-a]pyrazin-8-yl]amino]-2-methylphenyl]-[3-(hydroxymethyl)piperazin-1-yl]methanone]",1100
2,"COc1ccc(-c2cnc3c(Nc4ccc(C(=O)N5CC[C@@H](N)[C@@H](O)C5)c(C)c4)nccn23)cc1F [Example 423, [(3S,4R)-4-amino-3-hydroxypiperidin-1-yl]-[4-[[3-(3-fluoro-4-methoxyphenyl)imidazo[1,2-a]pyrazin-8-yl]amino]-2-methylphenyl]methanone; hy-drochloride]",1100
3,"COc1ccc(-c2cnc3c(Nc4ccc(C(=O)N5CCNC(C6CC6)C5)c(C)c4)nccn23)cc1F (stereo not shown) [Example 424, (3-cyclopropylpiperazin-1-yl)-[4-[[3-(3-fluoro-4-methoxyphenyl)imidazo[1,2-a]pyrazin-8-yl]amino]-2-methylphenyl]methanone; hy-drochloride]",1200
4,"COc1ccc(-c2cnc3c(Nc4ccc(C(=O)N5C[C@@H](O)[C@H](O)C5)c(C)c4)nccn23)cc1F [Example 425, [(3R,4R)-3,4-dihydroxypyrrolidin-1-yl]-[4-[[3-(3-fluoro-4-methoxyphenyl)imidazo[1,2-a]pyrazin-8-yl]amino]-2-methylphenyl]methanone]",1200
5,"COc1ccc(-c2cnc3c(Nc4ccc(C(=O)N5CCN(C6CC6)CC5)c(C)c4)nccn23)cc1F [Example 426, (4-cyclopropylpiperazin-1-yl)-[4-[[3-(3-fluoro-4-methoxyphenyl)imidazo[1,2-a]pyrazin-8-yl]amino]-2-methylphenyl]methanone]",1200
6,"COc1ccc(-c2cnc3c(Nc4ccc(C(=O)N5CCC(C(=O)NCc6ccc(C(=O)O)cc6)CC5)c(C)c4)nccn23)cc1F [Example 427, 4-[[[1-[4-[[3-(3-fluoro-4-methoxyphenyl)imidazo[1,2-a]pyrazin-8-yl]amino]-2-methylbenzoyl]piperidine-4-carbonyl]amino]methyl]ben-zoic acid]",1200
7,"Cc1cc(Nc2nccn3c(-c4ccc(O)c(F)c4)cnc23)ccc1C(=O)N1CCC(CN)CC1 [Example 428, [4-(aminomethyl)piperidin-1-yl]-[4-[[3-(3-fluoro-4-hydroxyphenyl)imidazo[1,2-a]pyrazin-8-yl]amino]-2-methylphenyl]methanone]",1300

# The next lines start with the values.
row,IC90 [nM],SMILES
1,1500,"COc1ccc(-c2cnc3c(Nc4ccc(C(=O)N5CCC(C(=O)N(C)C[C@H](O)[C@@H](O)[C@H](O)[C@H](O)CO)CC5)c(C)c4)nccn23)cc1F [Example 432, 1-[4-[[3-(3-fluoro-4-methoxyphenyl)imidazo[1,2-a]pyrazin-8-yl]amino]-2-methylbenzoyl]-N-methyl-N-[(2S,3R,4R,5R)-2,3,4,5,6-pentahydroxyhexyl]piperidine-4-carboxamide]"
2,1600,"COc1ccc(-c2cnc3c(Nc4ccc(C(=O)N5CCC(C(=O)NC6(C(=O)O)CC6)CC5)c(C)c4)nccn23)cc1F [Example 433, 1-[[1-[4-[[3-(3-fluoro-4-methoxyphenyl)imidazo[1,2-a]pyrazin-8-yl]amino]-2-methylbenzoyl]piperidine-4-carbonyl]amino]cyclopropane-1-carboxylic acid]"
3,1800,"COc1ccc(-c2cnc3c(Nc4ccc(C(=O)N5CC6(C5)CN(C5CC5)C6)c(C)c4)nccn23)cc1F [Example 434, (6-cyclopropyl-2,6-diazaspiro[3.3]heptan-2-yl)-[4-[[3-(3-fluoro-4-methoxyphenyl)imidazo[1,2-a]pyrazin-8-yl]amino]-2-methylphenyl]methanone]"
4,3200,"COc1ccc(-c2cnc3c(Nc4ccc(C(=O)N5CCC(CNCCC(=O)O)CC5)c(C)c4)nccn23)cc1 [Example 435, 3-[[1-[4-[[3-(4-methoxyphenyl)imidazo[1,2-a]pyrazin-8-yl]amino]-2-methylbenzoyl]piperidin-4-yl]methylamino]propanoic acid]"
5,1200,"Cc1cc(Nc2nccn3c(-c4ccc(OCC#N)c(F)c4F)cnc23)ccc1C(=O)N1CCN(C(=O)N2CCN[C@H](C(=O)O)C2)CC1 [Example 442, (2S)-4-[4-[4-[[3-[4-(cyanomethoxy)-2,3-difluorophenyl]imidazo[1,2-a]pyrazin-8-yl]amino]-2-methylbenzoyl]piperazine-1-carbonyl]piperazine-2-carboxylic acid]"
6,2000,"Cc1cc(Nc2nccn3c(-c4ccc(OS(C)(=O)=O)c(F)c4F)cnc23)ccc1C(=O)N1CCN(C(=O)C2CCNCC2)CC1 [Example 446, [2,3-difluoro-4-[8-[3-methyl-4-[4-(piperidine-4-carbonyl)piperazine-1-carbonyl]anilino]imidazo[1,2-a]pyrazin-3-yl]phenyl] methanesulfonate]"
7,2400,"Cc1cc(Nc2nccn3c(-c4ccc(OCC#N)c(F)c4F)cnc23)ccc1C(=O)N1CCN(C(=O)N2CCN[C@@H](C(=O)O)C2)CC1 [Example 450, (2R)-4-[4-[4-[[3-[4-(cyanomethoxy)-2,3-difluorophenyl]imidazo[1,2-a]pyrazin-8-yl]amino]-2-methylbenzoyl]piperazine-1-carbonyl]piperazine-2-carboxylic acid]"
8,2700,"CCc1cc(Nc2nccn3c(-c4ccc(OS(C)(=O)=O)c(F)c4F)cnc23)ccc1C(=O)N1CCN(C(=O)C2CCNCC2)CC1 [Example 451, [4-[8-[3-ethyl-4-[4-(piperidine-4-carbonyl)piperazine-1-carobnyl]anilino]imidazo[1,2-a]pyrazin-3-yl]-2,3-difluorophenyl] methanesulfonate; formic acid]"

# Same assay, conditions: Acinetobacter baumannii, ATCC17978, 16 h, read-out: ATCC17978 IC90, 90% growth inhibitory concentration, Acinetobacter baumannii ATCC17978, Iso-Sensitest broth, OD 600 nm over 16 h
row,SMILES,IC90 [nM]
1,"COc1ccc(-c2cnc3c(Nc4ccc(C(=O)N5CCC(CNCC(=O)O)CC5)c(C)c4)nccn23)cc1 [Example 431, formic acid; 2-[[1-[4-[[3-(4-methoxyphenyl)imidazo[1,2-a]pyrazin-8-yl]amino]-2-methylbenzoyl]piperidin-4-yl]methylamino]acetic acid]",1500
2,"COc1ccc(-c2cnc3c(Nc4ccc(C(=O)N5CCN(C(=O)N6CCN[C@@H](C(=O)O)C6)CC5)c(C)c4)nccn23)c(F)c1F [Example 436, (2R)-4-[4-[4-[[3-(2,3-difluoro-4-methoxyphenyl)imidazo[1,2-a]pyrazin-8-yl]amino]-2-methylbenzoyl]piperazine-1-carbonyl]piperazine-2-carboxylic acid; formic acid]",760
3,"Cc1cc(Nc2nccn3c(-c4ccc(OC(F)F)cc4)cnc23)ccc1C(=O)N1CCN(C(=O)[C@@H](N)Cc2cnc[nH]2)CC1 [Example 437, (2S)-2-amino-1-[4-[4-[[3-[4-(difluoromethoxy)phenyl]imi-dazo[1,2-a]pyrazin-8-yl]amino]-2-methylbenzoyl]piperazin-1-yl]-3-(1H-imidazol-5-yl)propan-1-one; hydrochloride]",770
4,"Cc1cc(Nc2nccn3c(-c4ccc(OC(F)F)cc4)cnc23)ccc1C(=O)N1CCN(C(=O)[C@@H]2CNCCN2)CC1 [Example 441, [4-[[3-[4-(difluoromethoxy)phenyl]imi-dazo[1,2-a]pyrazin-8-yl]amino]-2-methylphenyl]-[4-[(2S)-piperazine-2-carbonyl]piperazin-1-yl]methanone; hydrochloride]",1200
5,"COC(=O)CC[C@H](N)C(=O)N1CCN(C(=O)c2ccc(Nc3nccn4c(-c5ccc(OC(F)F)cc5)cnc34)cc2C)CC1 [Example 444, methyl (4S)-4-amino-5-[4-[4-[[3-[4-(difluoromethoxy)phenyl]imi-dazo[1,2-a]pyrazin-8-yl]amino]-2-methylbenzoyl]piperazin-1-yl]-5-oxopentanoate; hydrochloride]",1900
6,"Cc1cc(Nc2nccn3c(-c4ccc(OC(F)F)cc4)cnc23)ccc1C(=O)N1CCN(C(=O)N2CCN[C@@H](C(=O)O)C2)CC1 [Example 445, (2R)-4-[4-[4-[[3-[4-(difluoromethoxy)phenyl]imi-dazo[1,2-a]pyrazin-8-yl]amino]-2-methylbenzoyl]piperazine-1-carbonyl]piperazine-2-carboxylic acid; hydrochloride]",1900
7,"Cc1cc(Nc2nccn3c(-c4ccc(OC(F)F)cc4)cnc23)ccc1C(=O)N1CCN(C(=O)C2=CCNCC2)CC1 [Example 447, [4-[[3-[4-(difluoromethoxy)phenyl]imi-dazo[1,2-a]pyrazin-8-yl]amino]-2-methylphenyl]-[4-(1,2,3,6-tetrahydropyridine-4-carbonyl)piperazin-1-yl]methanone; hydrochloride]",2000
8,"Cc1cc(Nc2nccn3c(-c4ccc(OC(F)F)cc4)cnc23)ccc1C(=O)N1CCN(C(=O)[C@@H](N)CC(=O)O)CC1 [Example 448, (3S)-3-amino-4-[4-[4-[[3-[4-(difluoromethoxy)phenyl]imi-dazo[1,2-a]pyrazin-8-yl]amino]-2-methylbenzoyl]piperazin-1-yl]-4-oxobutanoic acid; hydrochloride]",2200
9,"Cc1cc(Nc2nccn3c(-c4ccc(OC(F)F)cc4)cnc23)ccc1C(=O)N1CCN(C(=O)[C@@H](N)CCCCN)CC1 [Example 452, (2S)-2,6-diamino-1-[4-[4-[[3-[4-(difluoromethoxy)phenyl]imi-dazo[1,2-a]pyrazin-8-yl]amino]-2-methylbenzoyl]piperazin-1-yl]hexan-1-one; hydrochloride]",3600
10,"Cc1cc(Nc2nccn3c(-c4ccc(OS(C)(=O)=O)c(F)c4F)cnc23)ccc1C(=O)N1CCN(C(=O)[C@@H]2C[C@@H](O)CN2)CC1 [Example 453, [2,3-difluoro-4-[8-[4-[4-[(2S,4R)-4-hydroxypyrrolidine-2-carbonyl]piperazine-1-carbonyl]-3-methylanilino]imidazo[1,2-a]pyrazin-3-yl]phenyl] methanesulfonate; formic acid]",4200
